Reference: US20170007615A1, “Antibacterial Compounds” (priority 2014, published 2017)
Read-outs that look alike come from different tables or passages of the source.

Columns and labels:
E. coli (ATCC 25922) = test: microbe, parasite or virus in culture; conditions: Escherichia coli
E. faecalis (ATCC 29212) = test: Antibacterial activity (MIC), Gram-positive type strain; type: cell-based, Enteroccocus faecalis; conditions: Enterococcus faecalis, ATCC29212; Table 13
[1] = test system: P. aeruginosa (ATCC 27853); conditions: Table 5
E. cloaceae (ATCC 13047) = test: microbe, parasite or virus in culture; conditions: Enterobacter cloacae, ATCC13047, read-out: MIC Compound alone
S. aureus (ATCC 29213) = test: Antibacterial activity (MIC), Gram-positive type strain; type: cell-based, Staphylococcus aureus; conditions: Staphylococcus aureus, ATCC29213; Table 13
[2] = test system: E. cloaceae drug resistant clinical isolates; test: Antibacterial activity (MIC) against drug resistant clinical isolates, alone and with PMBN; type: cell-based; conditions: for MIC: read-out: MIC Compound alone
[3] = test system: E. coli drug resistant clinical isolates; test: as above; type: cell-based; conditions: for MIC: Escherichia coli, read-out: MIC Compound alone
[4] = test system: A. baumannii (ATCC 19606); conditions: Table 4
[5] = test system: H. influenzae (ATCC 49247); test: Antibacterial activity (MIC), Gram-negative type strain; type: cell-based, Haemophilus influenzae; conditions: Haemophilus influenzae, ATCC49247; Table 13

CCNC(=O)Nc1nc2cc(-c3cnc(NS(=O)(=O)C(C)(C)C)nc3)cc(-c3ccc(C)cn3)c2s1 [Compound A-13, 1-[5-[2-(tert-Butylsulfonylamino)pyrimidin-5-yl]-7-(5-methyl-2-pyridyl)-1,3-benzothiazol-2-yl]-3-ethyl-urea]
0.25 µg/mL: MIC of Compound (μg/ml) in the presence of PMBN (128 μg/ml) ([2]; E. cloaceae (MMX 6087)) | MIC of Compound (μg/ml) in the presence of PMBN (128 μg/ml) ([2]; E. cloaceae (MMX 6304))
4 µg/mL: MIC ([3]; E. coli (MMX 5743)) | MIC ([3]; NCTC13352, E. coli (NCTC13352))
0.015 µg/mL: MIC [5]
16 µg/mL: MIC ([3]; E. coli (MMX 1312)) | MIC ([3]; E. coli (MMX 2232))
8 µg/mL: MIC ([2]; E. cloaceae (MMX 6093)) | MIC ([3]; NCTC13476, E. coli (NCTC13476))
> 16 µg/mL: MIC ([2]; E. cloaceae (MMX 6304))
0.12 µg/mL: MIC of Compound (μg/ml) in the presence of PMBN (128 μg/ml) ([2]; E. cloaceae (MMX 6093))
≤ 0.008 µg/mL: MIC (E. faecalis (ATCC 29212)) | MIC (S. aureus (ATCC 29213))
≦0.008 μg/ml: MIC of Compound (μg/ml) in the presence of PMBN (128 μg/ml) ([3]; E. coli (BAA200)) | MIC of Compound (μg/ml) in the presence of PMBN (128 μg/ml) ([3]; E. coli (MMX 1312)) | MIC of Compound (μg/ml) in the presence of PMBN (128 μg/ml) ([3]; E. coli (MMX 2232)) | MIC of Compound (μg/ml) in the presence of PMBN (128 μg/ml) ([3]; E. coli (MMX 5743)) | MIC of Compound (μg/ml) in the presence of PMBN (128 μg/ml) ([3]; E. coli (NCTC11954)) | MIC of Compound (μg/ml) in the presence of PMBN (128 μg/ml) ([3]; E. coli (NCTC13352)) | MIC of Compound (μg/ml) in the presence of PMBN (128 μg/ml) ([3]; E. coli (NCTC13353)) | MIC of Compound (μg/ml) in the presence of PMBN (128 μg/ml) ([3]; E. coli (NCTC13400)) | MIC of Compound (μg/ml) in the presence of PMBN (128 μg/ml) ([3]; E. coli (NCTC13462)) | MIC of Compound (μg/ml) in the presence of PMBN (128 μg/ml) ([3]; E. coli (NCTC13463))
0.03 µg/mL: MIC of Compound (μg/ml) in the presence of PMBN (128 μg/ml) [4]
> 64 µg/mL: MIC (E. cloaceae (ATCC 13047)) | MIC ([2]; E. cloaceae (MMX 6087)) | MIC ([2]; E. cloaceae (MMX 6095)) | MIC ([3]; E. coli (MMX 5771)) | MIC ([3]; E. coli (MMX 6413)) | MIC ([3]; NCTC13351, E. coli (NCTC13351)) | MIC ([3]; NCTC13441, E. coli (NCTC13441)) | MIC ([3]; NCTC13450, E. coli (NCTC13450)) | MIC ([3]; NCTC13461, E. coli (NCTC13461))
1 µg/mL: MIC (E. coli (ATCC 25922); ATCC25922, read-out: MIC Compound alone, Table 2) | MIC (E. coli (ATCC 25922); ATCC25922, read-out: MIC Compound alone, Table 3) | MIC of Compound (μg/ml) in the presence of PMBN (128 μg/ml) ([2]; E. cloaceae (MMX 6095)) | MIC ([3]; NCTC13353, E. coli (NCTC13353))
≦0.12 μg/ml: MIC of Compound (μg/ml) in the presence of PMBN (128 μg/ml) ([3]; E. coli (MMX 5771)) | MIC of Compound (μg/ml) in the presence of PMBN (128 μg/ml) ([3]; E. coli (MMX 6413)) | MIC of Compound (μg/ml) in the presence of PMBN (128 μg/ml) ([3]; E. coli (NCTC13351)) | MIC of Compound (μg/ml) in the presence of PMBN (128 μg/ml) ([3]; E. coli (NCTC13441)) | MIC of Compound (μg/ml) in the presence of PMBN (128 μg/ml) ([3]; E. coli (NCTC13450)) | MIC of Compound (μg/ml) in the presence of PMBN (128 μg/ml) ([3]; E. coli (NCTC13461)) | MIC of Compound (μg/ml) in the presence of PMBN (128 μg/ml) ([3]; E. coli (NCTC13476))
> 4 µg/mL: MIC ([3]; BAA200, E. coli (BAA200)) | MIC ([3]; NCTC13400, E. coli (NCTC13400)) | MIC ([3]; NCTC13462, E. coli (NCTC13462))
2 µg/mL: MIC ([3]; NCTC11954, E. coli (NCTC11954)) | MIC ([3]; NCTC13463, E. coli (NCTC13463))
<=0.008 μg/ml: MIC of Compound (μg/ml) in the presence of PMBN (128 μg/ml) [1]
